Source: patent US11160887B2, “Compositions for use in diagnosing and treating melanoma, including metastatic melanoma and methods related to same” (UNM RAINFOREST INNOVATIONS, priority 2008, dated 2021)
Where two headings read alike, the source gives them in different places. Residues, ends and D or L forms follow the SMILES beside them.

Key:
[1] = system: B16/F1 murine melanoma-bearing C57 mice; test: Biodistribution in B16/F1 murine melanoma-bearing C57 mice; assay type: in vivo, mouse
Experimental: (§1) Biodistribution Studies: All the animal studies were conducted in compliance with Institutional Animal Care and Use Committee approval. The pharmacokinetics of ^111In-DOTA-CycMSH and ^111In-DOTA-GlyGlu-CycMSH were determined in B16/F1 murine melanoma-bearing C57 female mice (Harlan, Indianapolis, Ind.). C57 mice were inoculated subcutaneously with 1×10^6 B16/F1 murine melanoma cells in the right flank. After 10 days, when the weight of tumors reached approximately 0.2 g, 0.037 MBq of ^111In-DOTA-CycMSH or ^111In-DOTA-GlyGlu-CycMSH was injected into each mouse through the tail vein. Groups of 5 mice were sacrificed at 2, 4 and 24 h post-injection, and tumors and organs of interest were harvested, weighed and counted. Blood values were taken as 6.5% of the whole-body weight. The tumor uptake specificity of ^111In-DOTA-CycMSH and ^111In-DOTA-GlyGlu-CycMSH was determined by blocking tumor uptake with the co-injection of 10 μg (6.07 nmol) of unlabeled NDP-MSH, a linear α-MSH peptide analogue with picomolar affinity for the MC1 receptors present on murine melanoma cells. Statistical analysis was performed using the Student's t-test for unpaired data.

[2] = as above; assay type: in vivo, mouse; conditions: female, C57, mouse, iv, 0.037 MBq, total radioactivity; for tissue uptake: all time points (2, 4, 24 h)
Experimental: as §1

SMILES: CCCC[C@@H]1NC(=O)[C@@H](NC(=O)[C@H](CCC(=O)O)NC(=O)CNC(=O)CN2CCN(CC(=O)O)CCN(CC(=O)O)CCN(CC(=O)O)CC2)CCCCNC(=O)[C@H](CC(=O)O)NC(=O)[C@H](C(C)C)NC(=O)[C@@H]2CCCN2C(=O)[C@H](CCCNC(=N)N)NC(=O)CNC(=O)[C@H](Cc2c[nH]c3ccccc23)NC(=O)[C@H](CCCNC(=N)N)NC(=O)[C@@H](Cc2ccccc2)NC(=O)[C@H](Cc2c[nH]cn2)NC(=O)[C@H](CCC(=O)O)NC1=O [^111In-DOTA-GlyGlu-CycMSH, metal not drawn] (HELM PEPTIDE1{[O=C(O)CN1CCN(CC(=O)O)CCN(CC(=O)[*:2])CCN(CC(=O)O)CC1].G.E.K.[Nle].E.H.[dF].R.W.G.R.P.V.D}$PEPTIDE1,PEPTIDE1,4:R3-15:R2$$$V2.0)
- tumor uptake with NDP co-injection as % of the tumor uptake without NDP co-injection ([1]; 10 μg (6.07 nmol) non-radiolabeled NDP co-injection, 2 h after dose administration): 2.6%
- tumor uptake ([1]; 2 h post-injection, tail vein): 10.40±1.40 % ID/g
- kidney uptake higher than 111In-DOTA-ReCCMSH ([1]; 4 h post-injection): 29%
- less renal uptake than 111In-DOTA-CycMSH ([1]; 4 h post-injection): 44%
- renal uptake as % of that of 111In-DOTA-CMSH ([1]; 4 h post-injection): 34%
- tissue uptake ([2]; bone, read-out: bone uptake): < 0.2 %ID/g
- kidney uptake at 24 h ([2]; kidney, 24 h after dose administration): 9.06 ± 1.82 %ID/g
- tissue uptake ([2]; normal organs except the kidneys, read-out: normal organ uptakes except for the kidneys): < 0.8 %ID/g
- tissue uptake at 2 h ([2]; tumor, 2 h post-injection, tail vein): 10.4 ± 1.4 %ID/g
- tissue uptake at 4 h ([2]; tumor, 4 h post-injection, tail vein): 7.4 ± 0.43 %ID/g
- tissue uptake at 24 h ([2]; tumor, 24 h post-injection, tail vein): 2.37 ± 0.28 %ID/g
- dose excreted ([2]; urine, by 2 h post-injection, read-out: injected radioactivity cleared through the urinary system): ~90%
